The results in this text go back to US20150185215A1, “Cell-Based Assays For Post-Translational Enzyme Activity” (Cell Assay Innovations, Inc., priority 2012, published 2015).

By IC50 is commonly meant the midpoint of a concentration-inhibition curve. Lower therefore signals greater potency.

In this assay the target is lck (Homo sapiens, UniProt P06239). The assay can be described thus: cell-based.

The structures appear in SMILES notation.

Chain of lck (P06239 whole entry): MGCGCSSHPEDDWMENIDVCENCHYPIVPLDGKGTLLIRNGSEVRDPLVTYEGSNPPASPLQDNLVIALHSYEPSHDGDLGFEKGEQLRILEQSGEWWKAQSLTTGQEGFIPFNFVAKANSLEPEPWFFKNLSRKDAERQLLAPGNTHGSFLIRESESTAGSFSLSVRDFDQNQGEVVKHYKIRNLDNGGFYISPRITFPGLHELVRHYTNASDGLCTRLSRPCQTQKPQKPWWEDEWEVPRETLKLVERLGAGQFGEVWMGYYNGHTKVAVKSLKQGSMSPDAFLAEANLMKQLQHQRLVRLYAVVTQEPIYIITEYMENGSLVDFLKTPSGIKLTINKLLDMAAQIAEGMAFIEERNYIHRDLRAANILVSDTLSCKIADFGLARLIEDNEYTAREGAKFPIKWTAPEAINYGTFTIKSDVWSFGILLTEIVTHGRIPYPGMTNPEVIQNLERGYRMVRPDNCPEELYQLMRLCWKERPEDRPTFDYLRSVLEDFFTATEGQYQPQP

Take `N#CC(=C(/N)Sc1ccccc1N)/C(C#N)=C(\N)Sc1ccccc1N` [U0126]: the IC50 was greater than 30 µM.
